Source: patent US20180273507A1, “CRYSTAL FORMS OF A M1 RECEPTOR POSITIVE ALLOSTERIC MODULATOR” (Merck Sharp & Dohme Corp., priority 2015, published 2018)

Experiment: Base catalyzed hydrolysis forced degradation, HPLC monitored
Details: basic conditions (0.1 N), 24 hours
Procedure: The experiment was conducted on a sample stored at room/ambient temperature and another sample maintained at 60° C.

degradation / loss under basic conditions (60° C.): 1.4%
degradation / loss under basic conditions (ambient temperature): 0.2%
Compound: Cc1ccc(Cc2cc3c(=O)n([C@H]4CCCC[C@@H]4O)cnc3c3ccccc23)cn1.O=C(O)/C=C/C(=O)O [3-[(1S,2S)-2-Hydroxycyclohexyl]-6-[(6-methyl-3-pyridinyl)methyl]benzo-[h]quinazolin-4(3H)-one (2E)-2-butenedioate]
